Experimental data from patent US12692221B2 (priority 2024, dated 2026).

Tests used:
[1] = Photoabsorption 290-700 nm, molar extinction coefficient (photoliability); type: physicochemical; conditions: wavelength of maximal absorption between 290 nm and 700 nm
A2A (h) = target: T1, A2A (h) (Homo sapiens, UniProt P29274); experiment: Radioligand binding A2A (h) (agonist radioligand), [^3H]CGS 21680, HEK-293 cells
T1 construct: expressed in transfected cells; host or cells: HEK-293 cells
Procedure: (§1) Methods—Binding Assays: In vitro binding assays were performed using human recombinant receptors expressed in mammalian cell lines. Receptors were expressed in either HEK-293 or CHO cells depending on the target, and assay conditions (radioligand, concentration, nonspecific competitor, temperature, and incubation time) were optimized for each receptor. All assays were conducted in triplicate, and specific binding was quantified by scintillation counting as the detection method for each listed assay.
(§2) Specific binding was expressed as a percentage of control-specific binding, and percent inhibition was calculated using the formula in Ex. 8 above. Half-maximal inhibitory concentrations (IC50) were determined by non-linear regression analysis of the inhibition curves using the Hill equation (see Ex. 8). Inhibition constants (Ki) were calculated using the Cheng-Prusoff equation (see Ex. 8). KD values used in these calculations had been previously established for each receptor under the assay conditions (see Table 6). Data analysis was performed using software developed at Cerep and validated against SigmaPlot 4.0 for Windows.

beta1 (h) = target: T2, beta1 (h) (Homo sapiens, UniProt P08588); experiment: Radioligand binding beta1 (h) (agonist radioligand), [^3H](−)CGP 12177, HEK-293 cells
T2 construct: expressed in transfected cells; host or cells: HEK-293 cells
Procedure: as §1, §2

N neuronal α4β2 (h) = target: T3, N neuronal α4β2 (h) (Homo sapiens, UniProt P17787+P43681); experiment: Radioligand binding N neuronal α4β2 (h) (agonist radioligand), [^3H]cytisine, SH-SY5Y cells; conditions: N neuronal alpha4beta2 (h) (agonist radioligand)
T3 construct: expressed in transfected cells; host or cells: SH-SY5Y cells

kappa (KOP) (h) = target: T4, kappa (KOP) (h) (Homo sapiens, UniProt P41145); experiment: Radioligand binding kappa (KOP) (h) (agonist radioligand), [^3H]U69593, RBL cells; conditions: kappa (h) (KOP) (agonist radiolig.)
T4 construct: expressed in transfected cells; host or cells: RBL cells

5-HT3 (h) = target: T5, 5-HT3 (h) (Homo sapiens, UniProt P46098); experiment: Radioligand binding 5-HT3 (h) (antagonist radioligand), [^3H]BRL 43694, CHO cells
T5 construct: expressed in transfected cells; host or cells: CHO cells
T5 sequence (P46098 24-478): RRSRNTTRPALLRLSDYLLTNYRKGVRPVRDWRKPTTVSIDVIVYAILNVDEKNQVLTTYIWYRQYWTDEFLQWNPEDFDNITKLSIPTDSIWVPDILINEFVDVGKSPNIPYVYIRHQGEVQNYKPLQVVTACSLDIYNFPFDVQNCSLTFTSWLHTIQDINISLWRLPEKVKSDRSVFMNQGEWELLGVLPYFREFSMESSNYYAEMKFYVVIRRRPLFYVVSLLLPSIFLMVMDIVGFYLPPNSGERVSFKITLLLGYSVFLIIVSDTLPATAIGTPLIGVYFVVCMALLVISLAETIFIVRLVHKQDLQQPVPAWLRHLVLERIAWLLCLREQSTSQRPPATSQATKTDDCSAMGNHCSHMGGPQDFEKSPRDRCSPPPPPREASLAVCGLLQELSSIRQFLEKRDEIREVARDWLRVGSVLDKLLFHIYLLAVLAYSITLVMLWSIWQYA
Procedure: as §1, §2

KV channel = type: binding, rat; conditions: KV channel (antagonist radiolig.)
Na^+ channel (site 2) = conditions: Na+ channel (site 2) (antagonist radioligand); footnote: Sodium Channel Site2 (Non-selective) Rat Ion Channel Batrachotoxin Mass Spectr. Binding
dopamine transporter(h) = target: T6, dopamine transporter(h) (Homo sapiens, UniProt Q01959); experiment: Radioligand binding DA transporter (h) (antagonist radioligand), [^3H]BTCP, CHO cells
T6 construct: expressed in transfected cells; host or cells: CHO cells
Procedure: as §1, §2

PDE3A(h) = target: T7, PDE3A(h) (Homo sapiens, UniProt Q14432); experiment: Enzyme assay PDE3A(h), [3H]cAMP, scintillation counting; type: biochemical
T7 construct: host or cells: Sf21 cells
Procedure: (§3) Methods—Enzyme and Uptake Assays: In vitro enzyme and uptake assays were conducted by Eurofins Discovery using human recombinant enzymes expressed in various mammalian and insect cell lines. Enzymatic activity was measured using appropriate substrates or tracers under conditions optimized for each target, as detailed in Table 7. Reactions were incubated at room temperature for a defined duration and terminated according to established protocols. The measured components (either enzymatic products or remaining substrate) were quantified using fluorimetry, photometry, scintillation counting, or LANCE technology, depending on the assay. Assay-specific parameters, including substrate identity, cell line source, incubation time, and detection method, are provided in Table 7.
(§4) All measurements were performed in technical replicates to ensure reproducibility and data quality.
(§5) Results were expressed both as a percentage of control-specific activity and as percent inhibition of control-specific activity. Percent activity was calculated as (measured specific activity/control specific activity)×100, and percent inhibition as 100−[(measured specific activity/control specific activity)×100], based on values obtained in the presence of test compounds. IC50 and EC50 values, along with Hill coefficients (nH), were determined by nonlinear regression analysis of inhibition or concentration-response curves generated from mean replicate values. Hill curve fitting was performed as previously described using software developed at Cerep and validated against SigmaPlot® 4.0 for Windows® (© 1997 by SPSS Inc.).

Lck kinase (h) = target: T8, Lck kinase (h) (Homo sapiens, UniProt P06239); experiment: Enzyme assay Lck kinase (h), LANCE; type: biochemical
T8 construct: host or cells: insect cells
Procedure: as §3, §4, §5

5-HT2C = target: T9, 5-HT2C (Homo sapiens, UniProt P28335); experiment: cell-based; conditions: IP-1 accumulation
T9 construct: host or cells: HEK293

5-HT2A (h) = target: T10, 5-HT2A (h) (Homo sapiens, UniProt P28223); experiment: Radioligand binding 5-HT2A (h) (agonist radioligand), [^125I](±)DOI, HEK-293 cells
T10 construct: host or cells: HEK-293 cells

5-HT2C (h) = target: T11, 5-HT2C (h) (Homo sapiens, UniProt P28335); experiment: Radioligand binding 5-HT2C (h) (agonist radioligand), [^125I](±)DOI, HEK-293 cells
T11 construct: host or cells: HEK-293 cells
T11 sequence (P28335 33-458): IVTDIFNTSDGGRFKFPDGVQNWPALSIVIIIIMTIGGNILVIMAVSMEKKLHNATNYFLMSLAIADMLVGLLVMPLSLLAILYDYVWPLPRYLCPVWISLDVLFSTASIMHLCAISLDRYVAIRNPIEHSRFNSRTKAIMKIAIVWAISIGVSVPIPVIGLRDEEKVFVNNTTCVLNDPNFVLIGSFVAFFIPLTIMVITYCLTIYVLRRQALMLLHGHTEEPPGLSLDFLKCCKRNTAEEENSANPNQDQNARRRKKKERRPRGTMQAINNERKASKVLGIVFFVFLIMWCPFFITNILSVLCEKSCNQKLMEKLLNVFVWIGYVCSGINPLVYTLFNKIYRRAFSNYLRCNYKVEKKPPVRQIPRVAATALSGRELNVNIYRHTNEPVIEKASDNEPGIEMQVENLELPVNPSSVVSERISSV

male C57BL/6J mice = experiment: Motor activity / distance traveled measured in parallel with HTR; type: in vivo, mouse; conditions: i.p.; for motor activity, in words: magnetometer activity

T7 sequence (Q14432 whole entry): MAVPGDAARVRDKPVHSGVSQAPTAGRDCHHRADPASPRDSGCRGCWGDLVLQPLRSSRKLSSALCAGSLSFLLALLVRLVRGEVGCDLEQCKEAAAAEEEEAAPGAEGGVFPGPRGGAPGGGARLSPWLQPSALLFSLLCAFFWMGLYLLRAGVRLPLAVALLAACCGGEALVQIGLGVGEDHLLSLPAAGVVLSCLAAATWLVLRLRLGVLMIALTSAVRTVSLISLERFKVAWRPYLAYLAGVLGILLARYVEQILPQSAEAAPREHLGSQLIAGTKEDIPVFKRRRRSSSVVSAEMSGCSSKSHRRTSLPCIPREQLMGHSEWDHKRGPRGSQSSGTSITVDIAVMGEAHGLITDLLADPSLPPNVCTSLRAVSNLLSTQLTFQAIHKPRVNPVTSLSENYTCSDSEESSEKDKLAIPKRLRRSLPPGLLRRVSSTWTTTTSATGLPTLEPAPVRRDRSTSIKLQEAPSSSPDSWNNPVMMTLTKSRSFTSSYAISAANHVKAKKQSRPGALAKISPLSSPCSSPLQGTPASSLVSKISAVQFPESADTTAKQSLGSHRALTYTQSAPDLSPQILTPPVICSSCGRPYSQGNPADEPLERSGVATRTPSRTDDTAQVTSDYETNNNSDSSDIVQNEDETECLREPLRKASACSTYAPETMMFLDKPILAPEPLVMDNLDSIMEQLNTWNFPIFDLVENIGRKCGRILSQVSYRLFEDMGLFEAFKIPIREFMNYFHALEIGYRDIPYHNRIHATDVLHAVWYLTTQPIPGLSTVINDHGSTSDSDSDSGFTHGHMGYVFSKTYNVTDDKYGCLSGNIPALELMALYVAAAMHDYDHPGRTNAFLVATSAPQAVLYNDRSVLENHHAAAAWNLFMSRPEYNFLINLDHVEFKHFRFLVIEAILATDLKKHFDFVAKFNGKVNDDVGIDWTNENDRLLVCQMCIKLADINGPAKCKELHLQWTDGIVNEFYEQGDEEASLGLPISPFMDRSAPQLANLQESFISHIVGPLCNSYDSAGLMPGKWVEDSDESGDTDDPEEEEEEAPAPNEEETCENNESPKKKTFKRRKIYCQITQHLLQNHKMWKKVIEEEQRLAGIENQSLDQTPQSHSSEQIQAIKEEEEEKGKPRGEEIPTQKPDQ
T1 sequence (P29274 whole entry): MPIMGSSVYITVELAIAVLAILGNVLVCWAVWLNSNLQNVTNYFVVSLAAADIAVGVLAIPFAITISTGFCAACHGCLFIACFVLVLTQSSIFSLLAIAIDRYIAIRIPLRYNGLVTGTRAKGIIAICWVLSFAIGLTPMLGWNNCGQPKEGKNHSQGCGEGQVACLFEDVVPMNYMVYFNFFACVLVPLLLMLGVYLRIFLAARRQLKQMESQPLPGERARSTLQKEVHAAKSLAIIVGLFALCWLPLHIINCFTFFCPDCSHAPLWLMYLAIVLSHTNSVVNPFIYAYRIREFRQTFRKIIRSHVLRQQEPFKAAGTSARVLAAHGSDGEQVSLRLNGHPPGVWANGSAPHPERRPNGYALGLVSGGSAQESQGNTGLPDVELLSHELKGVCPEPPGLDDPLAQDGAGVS
T4 sequence (P41145 whole entry): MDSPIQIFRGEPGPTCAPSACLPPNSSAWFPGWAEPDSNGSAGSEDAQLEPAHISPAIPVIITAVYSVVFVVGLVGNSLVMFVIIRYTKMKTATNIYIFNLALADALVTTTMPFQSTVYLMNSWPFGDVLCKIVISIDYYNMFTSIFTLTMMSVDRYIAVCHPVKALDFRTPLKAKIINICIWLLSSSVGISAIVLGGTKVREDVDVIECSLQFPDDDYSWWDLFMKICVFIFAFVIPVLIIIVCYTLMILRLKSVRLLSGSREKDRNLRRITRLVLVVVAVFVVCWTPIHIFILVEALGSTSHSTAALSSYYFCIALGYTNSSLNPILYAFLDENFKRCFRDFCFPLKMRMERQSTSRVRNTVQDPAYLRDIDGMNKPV
T3 sequence (P43681 29-627 limits assumed): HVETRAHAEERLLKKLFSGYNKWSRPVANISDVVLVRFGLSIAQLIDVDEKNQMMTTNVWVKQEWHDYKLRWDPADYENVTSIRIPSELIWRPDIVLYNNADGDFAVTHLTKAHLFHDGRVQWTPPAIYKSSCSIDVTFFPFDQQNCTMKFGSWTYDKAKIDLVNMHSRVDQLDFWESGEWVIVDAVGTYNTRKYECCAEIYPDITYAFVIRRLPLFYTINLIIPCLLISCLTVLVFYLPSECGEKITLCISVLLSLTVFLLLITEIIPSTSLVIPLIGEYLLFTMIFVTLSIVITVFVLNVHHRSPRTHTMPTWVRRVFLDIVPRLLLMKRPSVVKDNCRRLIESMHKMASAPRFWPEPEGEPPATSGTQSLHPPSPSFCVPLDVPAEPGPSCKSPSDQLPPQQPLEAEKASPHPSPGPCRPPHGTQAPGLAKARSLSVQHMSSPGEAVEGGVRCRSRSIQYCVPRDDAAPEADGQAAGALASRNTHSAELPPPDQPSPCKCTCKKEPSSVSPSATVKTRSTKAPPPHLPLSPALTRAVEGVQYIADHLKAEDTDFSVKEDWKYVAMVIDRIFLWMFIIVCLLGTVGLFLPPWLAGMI
T3 sequence (P17787 26-502): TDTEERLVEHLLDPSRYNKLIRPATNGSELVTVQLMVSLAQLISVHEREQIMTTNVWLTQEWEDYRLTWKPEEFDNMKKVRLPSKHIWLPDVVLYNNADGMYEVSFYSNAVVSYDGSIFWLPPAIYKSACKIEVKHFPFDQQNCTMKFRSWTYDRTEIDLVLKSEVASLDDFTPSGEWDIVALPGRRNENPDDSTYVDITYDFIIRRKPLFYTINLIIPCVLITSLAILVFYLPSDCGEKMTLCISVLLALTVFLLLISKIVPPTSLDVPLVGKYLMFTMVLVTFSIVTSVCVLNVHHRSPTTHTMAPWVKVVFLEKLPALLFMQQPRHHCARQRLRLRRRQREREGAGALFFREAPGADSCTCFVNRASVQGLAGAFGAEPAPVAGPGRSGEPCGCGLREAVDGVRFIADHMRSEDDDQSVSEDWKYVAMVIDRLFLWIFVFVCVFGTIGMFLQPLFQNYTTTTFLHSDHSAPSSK
T2 sequence (P08588 whole entry): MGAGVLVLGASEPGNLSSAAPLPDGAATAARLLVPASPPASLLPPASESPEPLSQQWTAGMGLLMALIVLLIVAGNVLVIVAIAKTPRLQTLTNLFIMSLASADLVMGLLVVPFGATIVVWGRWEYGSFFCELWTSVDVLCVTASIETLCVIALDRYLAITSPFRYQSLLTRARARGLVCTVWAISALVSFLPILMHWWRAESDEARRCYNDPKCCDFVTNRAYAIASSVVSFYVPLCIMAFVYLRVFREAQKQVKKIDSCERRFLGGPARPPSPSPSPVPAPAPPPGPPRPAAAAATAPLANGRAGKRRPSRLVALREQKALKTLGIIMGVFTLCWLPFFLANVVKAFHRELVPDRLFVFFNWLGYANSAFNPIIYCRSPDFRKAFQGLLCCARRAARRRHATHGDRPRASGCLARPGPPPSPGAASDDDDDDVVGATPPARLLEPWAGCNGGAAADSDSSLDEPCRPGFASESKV
T6 sequence (Q01959 whole entry): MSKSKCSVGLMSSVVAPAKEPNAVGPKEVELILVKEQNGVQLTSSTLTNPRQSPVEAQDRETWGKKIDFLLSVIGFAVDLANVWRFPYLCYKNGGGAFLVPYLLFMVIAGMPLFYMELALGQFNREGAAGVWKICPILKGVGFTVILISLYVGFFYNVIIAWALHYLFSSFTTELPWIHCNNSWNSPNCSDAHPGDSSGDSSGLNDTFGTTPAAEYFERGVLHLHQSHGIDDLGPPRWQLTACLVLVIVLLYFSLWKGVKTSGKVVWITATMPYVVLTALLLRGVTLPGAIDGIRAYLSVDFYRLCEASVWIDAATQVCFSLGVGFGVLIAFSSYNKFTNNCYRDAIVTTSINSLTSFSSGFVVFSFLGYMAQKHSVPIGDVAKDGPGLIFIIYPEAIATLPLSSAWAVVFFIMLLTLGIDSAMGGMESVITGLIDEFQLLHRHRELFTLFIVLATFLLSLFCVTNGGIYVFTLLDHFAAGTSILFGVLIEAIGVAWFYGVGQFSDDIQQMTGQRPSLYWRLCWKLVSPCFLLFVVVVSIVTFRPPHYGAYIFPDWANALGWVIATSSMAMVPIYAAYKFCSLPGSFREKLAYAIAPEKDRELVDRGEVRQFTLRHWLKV
T8 sequence (P06239 whole entry): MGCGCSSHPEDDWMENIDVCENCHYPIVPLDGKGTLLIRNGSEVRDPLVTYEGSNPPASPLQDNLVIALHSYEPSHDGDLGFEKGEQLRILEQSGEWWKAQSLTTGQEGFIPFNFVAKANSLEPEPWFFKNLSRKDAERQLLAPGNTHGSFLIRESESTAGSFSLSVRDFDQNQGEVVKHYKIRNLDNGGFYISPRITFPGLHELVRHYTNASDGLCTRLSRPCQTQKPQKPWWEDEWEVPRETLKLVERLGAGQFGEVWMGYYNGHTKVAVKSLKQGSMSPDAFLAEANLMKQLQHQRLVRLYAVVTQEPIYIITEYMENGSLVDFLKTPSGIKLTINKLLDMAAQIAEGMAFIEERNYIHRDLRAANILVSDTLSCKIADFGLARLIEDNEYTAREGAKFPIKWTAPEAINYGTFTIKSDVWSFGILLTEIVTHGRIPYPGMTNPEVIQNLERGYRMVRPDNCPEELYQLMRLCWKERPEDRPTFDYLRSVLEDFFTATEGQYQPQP

SMILES | MEC [1] [L/mol/cm] | Mean Percent Inhibition of Control Specific Binding (A2A (h)) [%] | Mean Percent Inhibition of Control Specific Binding (beta1 (h)) [%] | Mean Percent Inhibition of Control Specific Binding (N neuronal α4β2 (h)) [%] | Mean Percent Inhibition of Control Specific Binding (kappa (KOP) (h)) [%] | Mean Percent Inhibition of Control Specific Binding (5-HT3 (h)) [%] | Mean Percent Inhibition of Control Specific Binding (KV channel) [%] | Mean Percent Inhibition of Control Specific Binding (Na^+ channel (site 2)) [%] | Mean Percent Inhibition of Control Specific Binding (dopamine transporter(h)) [%] | Mean Percent Inhibition of Control Specific Binding (PDE3A(h)) [%] | Mean Percent Inhibition of Control Specific Binding (Lck kinase (h)) [%] | EC50 (5-HT2C) [nM] | motor activity, in words (male C57BL/6J mice) | other results
COCc1cc(CCN)c(O)cc1CC(C)C [2CiBu-2OH-5MM, 2-(2-aminoethyl)-5-isobutyl-4-(methoxymethyl)phenol] | 380.8 | 11.0 | 84.5 | −10.0 | 28.2 | −3.9 | 12.7 | 66 | 22.3 | 35.1 | 12.8 |  |  | 
COCCc1cc(CCN)c(OC)cc1Br [Compound 2CB-5ME, reference compound] |  | −21.3 | 26.2 | 7.4 | 11.2 | −1.6 | −4.3 | 46.9 | 6.2 | −4.6 | 23.3 | 265 | motor suppression reaching statistical significance at 30 mpk | Mean Percent Inhibition of Control Specific Binding (5-HT2A (h); 5-HT2A(h) (agonist radioligand)): 98.8%; Mean Percent Inhibition of Control Specific Binding (5-HT2C (h); 5-HT2C(h) (agonist radioligand)): 99.3%
COCc1cc(CCN)c(OC)cc1Br [Compound 2CB-5MM, 2-(4-bromo-2-methoxy-5-(methoxymethyl)phenyl)ethan-1-amine] | 781.9 | 12.2 | 19 | −0.1 | 11.4 | 11.6 | 0.7 | 21.6 | 10.7 | 14.5 | 5.9 | 225 |  | Distance traveled (locomotor activity), in words (male C57BL/6J mice; 0.03-30 mpk, over 30 minutes): remained consistent across doses
COCc1cc(CCN)c(OC)cc1CC(C)C [Compound 2CiBu-5MM, 2-[4-isobutyl-2-methoxy-5-(methoxymethyl)phenyl]ethanamine] | 283.6 | 1.1 | 36.0 | −2.6 | 29.8 | 2.6 | −4.2 | 70.4 | 7.7 | 8.2 | −6.6 |  | statistically significant suppression of motor activity at the two highest doses tested of 10 and 30 mpk | IC50 (5-HT2A (h)): 57 nM; Ki (5-HT2A (h)): 43 nM; nH (5-HT2A (h); 5-HT2A, Hill coefficient): 0.6; IC50 (5-HT2C (h)): 14 nM; Ki (5-HT2C (h)): 12 nM; nH (5-HT2C (h); 5-HT2C, Hill coefficient): 0.9; motor activity ID50 (male C57BL/6J mice): > 3 mpk
